# Patent publication US5608095A, “Alkyl-4-silyl-phenols and esters thereof as antiatherosclerotic agents” (Hoechst Marion Roussel, Inc., priority 1996, dated 1997)
# Where two headings read alike, the source gives them in different places.
# How the values were obtained:
# [1] = Clinical chemistries in serum of rats; format: in vivo, male Sprague-Dawley rats; conditions: for response vs control in vivo at 0.3 %: Rattus norvegicus, po, 96 h; for ALP (alkaline phosphatase), percent of control / ALT (alanine aminotransferase), percent of control / AST (aspartate aminotransferase), percent of control / GLUC (glucose), percent of control: rat serum, diet 0.3%, 4 days
# From the text: (§1) A typical experiment consisted of 4-6 groups of rats (N=5 per group) with 1 group being a control which received no MDL compound and the other groups being treated with 0.3% MDL compound. Some of the compounds were either repeated at 0.3% or evaluated again at the lower dose of 0.1%. Male Sprague-Dawley rats, 50-100 g, (Harlan Laboratories, Indianapolis, Ind.) were housed in groups of 5, fed ad libitum water and Purina Rodent chow (#5002) with or without MDL compound as a dietary admixture for 4 days. Dietary admixtures (0.3%) were made by mixing 1.2 grams of an MDL compound with 400 grams of Purina rodent chow (#5002). The MDL compound was mixed with approximately 50 grams of food using a mortar and pestle. This was added to the remainder of the food and mixed for 3 hours on a rotary mixer. In the morning of day 5, non-fasted rats were anesthetized with carbon dioxide, and blood was collected by cardiac puncture. Rats were sacrificed by cervical dislocation. Body weights and liver weights were recorded in grams. Food consumption was recorded as grams.cndot.day^-1.cndot.rat^-1. Deaths were recorded as mortality. Aliquots of fresh serum were used for clinical chemistries, thiobarbituric acid reactive substances (TBARS) and conjugated diene measurements. Aliquots of serum (~0.5mL) and whole livers were frozen at -20° C. for compound and metabolite concentration determination at a later time.
# Blood was allowed to clot at room temperature for 30 minutes. Serum was obtained after centrifugation for 10 min at 4° C. at 3000 rpm in a Beckman J-6M/E centrifuge with a JS-4.2 rotor. Fresh serum was analyzed by a COBAS MIRA S autoanalyzer (Roche Diagnostics) using Roche diagnostic reagents for the following clinical chemistry measurements: alkaline phosphatase (ALP, kit #44553), alanine transaminase (ALT, kit #42375), aspartate aminotransferase (AST, kit #42381), total cholesterol (CHOL, kit #44334), triglyceride (TG, kit #44120), and glucose (GLU, kit #44558). ALP, ALT, and AST were calculated as units/L. Cholesterol, triglycerides, and glucose were calculated as mg/dL.
# [2] = tested on: oxidation of serum lipids; test: TBARS assay, rat serum; format: in vivo, male Sprague-Dawley rats; conditions: Rattus norvegicus, po, 96 h, read-out: TBARS, percent of control
# From the text: as §1
# In this assay the oxidation of serum lipids is initiated with CuSO4, resulting in the formation of aldehydes, such as malondialdehyde (MDA). Upon incubation with thiobarbituric acid, the absorbance of the aldehydes can be detected at 530-540 nm. As stated in the previous example, TBARS values which are lower than control serum values indicate the relative ability of a test compound to inhibit the oxidation of lipids in a sample. TBARS were measured as follows: 100 μL of serum were mixed with 400 μL of a 5 mmol CuSO4 solution and incubated at 37° C. for 3 hr. The reactions were stopped by addition of 1.0 mL of 20% trichloroacetic acid. Then 1.0 mL of 0.67% thiobarbituric acid in 0.05N sodium hydroxide was added, mixed, and the samples incubated for 30 min at 90° C. Samples were centrifuged briefly to pellet undissolved material, and the supernatants were transferred to a 96-well microtiter plate. Absorbances were measured at 540 nm using a Biotek model EL311 microplate reader. The nmoles of MDA produced were calculated from a standard curve of 0 to 10 nmoles of MDA prepared from malonaldehyde bis(dimethylacetal). Serum samples from treated rats were compared to serum samples from control rats that received no MDL compound.
# oxidation of lipids = test: Conjugated diene determination, rat serum; format: in vivo, male Sprague-Dawley rats; conditions: pooled rat serum, diet 0.3%, 4 days, mean of 2 determinations
# From the text: as §1
# Conjugated diene lag phase is another indicator of the oxidation of lipids. Lipids exposed to Cu^++ form conjugated dienes that absorb ultraviolet light in the range of 230 to 235 nm. The lag phase of diene formation gives an indication of the amount of oxidation of the lipids. A lag phase longer than control samples indicate inhibition of the oxidation. Conjugated diene lay phase was determined using a Varian DMS200 spectrophotometer (fitted with a constant temperature, 5 cuvette sample changer) at 30° C. Twenty (20) μL of pooled serum were added to cuvettes containing 3.0 mL phosphate buffered saline, pH 7.5, and mixed. The absorbances of all cuvettes were measured, and the instrument baseline was set to zero using the lowest absorbing sample. Next, 100 μL of 1 mmol CuSO4 were added and immediately mixed. The absorbance of each cuvette was recorded at 2 min intervals for a period of 840 min. The data were captured and transferred to a Microsoft EXCEL® spreadsheet where the curves were smoothed and differentials obtained. Lag times were determined mathematically as minutes. Serum samples were pooled (N=5); data presented are the mean values of 2 determinations. Serum samples from treated rats were compared to serum samples from control rats that received no MDL compound.
# [3] = Animal parameters (food, body weight, liver weight, mortality) in rats; format: in vivo, male Sprague-Dawley rats; conditions: diet 0.3%, 4 days; for mortality at 96 h: in vivo, po, read-out: mortality (deaths per group); for mortality at 96 h / body wt., percent of control / lw/bw (liver weight/body weight), percent of control: rat
# From the text: as §1
# [4] = HPLC quantitation of compound and metabolite concentration in rat serum and liver; format: in vivo, male Sprague-Dawley rats; conditions: diet 0.3%, 4 days; for Liver Parent = parent compound concentration: rat liver; for Serum Parent = parent compound concentration: rat serum
# From the text: as §1
# Serum and liver concentrations of parent compound and the metabolites, bisphenol and diphenoquinone, were determined by reverse phase HPLC using a Waters 990 Powerline system. Livers (1 gram samples) were homogenized with 5.0 mL PBS, pH 7.4, using a Polytron tissue homogenizer at setting 5 for 20-30 seconds. Serum or liver homogenates were extracted as follows: 100μL of either serum or homogenate were added to 2.0 mL diethyl ether:ethanol (3:1) while vortexing the tube. The sample tubes were capped and centrifuged for 10 min at 5° C. at 3500 rpm in a Beckman GPKR centrifuge with a GH 3.7 rotor. The supernatants were transferred to clean tubes and dried under N2. Samples were reconstituted with 200 μL of acetonitrile:hexane:0.1M ammonium acetate (90:6.5:3.5, by vol.). Then, 100 μL were injected onto a Waters Deltapak C18-300 Å column, and eluted with an 83% acetonitrile:17% water mobile phase at a flow rate of 1.5 mL/min. Absorbances at the wavelengths of 240, 254, and 420 nm were recorded. Compound concentrations were calculated from known quantities of authentic parent compounds after correction for recovery; the range of recovery from spiked samples was 40 to 100%. The lowest detectable limit for this class of compounds was ~0.5 μg/mL. […]. Concentrations were calculated as μg/mL of serum and μg/g of liver.
# VCAM-1 = conditions: vascular endothelial cells; cited from earlier work
# [5] = read-out: CHOL (total cholesterol), percent of control
# [6] = read-out: TRIG (triglycerides), percent of control
SMILES,"response vs control in vivo at 0.3 % [1, 5] [%]","response vs control in vivo at 0.3 % [1, 6] [%]","ALP (alkaline phosphatase), percent of control [1] [%]","ALT (alanine aminotransferase), percent of control [1] [%]","AST (aspartate aminotransferase), percent of control [1] [%]","GLUC (glucose), percent of control [1] [%]",response vs control in vivo at 0.3 % [2] [%],CONJ. DIENE (conjugated diene lag phase) (oxidation of lipids) [min],"food (grams eaten per day per rat), percent of control [3] [%]",mortality at 96 h [3] [%],"body wt., percent of control [3] [%]","lw/bw (liver weight/body weight), percent of control [3] [%]",Liver Parent = parent compound concentration [4] [µg/g],Serum Parent = parent compound concentration [4] [µg/mL],inhibition of cytokine-induced expression of VCAM-1 (VCAM-1)
"CC(=O)Oc1c(C)cc(OC[Si](C)(C)c2ccccc2)c(C)c1C [MDL 103,157, 2,3,6-Trimethyl-4-[(dimethylphenylsilyl)methyloxy]phenol acetic acid ester]",112,82,144,133,92,100,94,50,96,0,96,120,0,0,–
"CC(C)(C)c1cc(OC[Si](C)(C)c2ccccc2)ccc1OC(=O)CCC(=O)O [MDL 104,399, 2-t-Butyl-4-[(dimethylphenylsilyl)methyloxy]phenol succinic acid ester]",130,168,91,107,102,88,41,395,90,0,101,118,0,0,–
"CC(=O)Oc1cc(C(C)(C)C)c(OC[Si](C)(C)c2ccccc2)cc1C(C)(C)C [MDL 106,290, 2,5-Di-t-butyl-4-[(dimethylphenylsilyl)methyloxy]phenol acetic acid ester]",153,75,118,89,84,109,17,372,108,0,95,104,–,–,–
CC(=O)N[C@@H](CS)C(=O)O [N-acetylcysteine],–,–,–,–,–,–,–,–,–,–,–,–,–,–,inhibit cytokine-induced expression of VCAM-1
S=C(S)N1CCCC1 [pyrollidine dithiocarbamate],–,–,–,–,–,–,–,–,–,–,–,–,–,–,inhibit cytokine-induced expression of VCAM-1
